We go through ten compounds from US5385911A, “Anti-herpes castanospermine esters” (priority 1990, dated 1995).

One series deals with HSV2 strain HG52. Put plainly: plaque-reduction assay, HSV2 strain HG52 in MRC5 cells. The class given is cell-based, HSV2 strain HG52; human embryonic fibroblast cells (MRC5). The conditions noted are these: Human alphaherpesvirus 2, 72 h, 3 days incubation, read-out: ED50 HSVII. As for the experimental part: (§1) Antiviral activity of the compounds of formula (1) can assessed by the plaque-reduction assay as previously described by Tyms et al., J. Antimicrobial Chemotherapy, 8, 65-72 (1981). Briefly, human embryonic fibroblast cells (MRC5) were cultured in 24-well tissue culture trays in the presence of Eagles' minimum essential medium (MEM) supplemented with 10% fetal calf serum. When cell monolayers were semi-confluent, they were inoculated with 30-50 plaque-forming units of HSV2 strain HG52 or HSV1 strain 17[…]. General Virology, 55, 315-331 (1981). […] After 3 days incubation, cells were fixed in 10% formalin in saline and subsequently stained with 0.3% methylene blue. Dose-responselines were plotted from the mean number of plaques present versus the log of the concentration of the compound. The 50% effective dose (ED50) was computed after linear regression analysis.

For a further series, the system named is HIV glycoproteins. The note with it: cited from earlier work; for formation of syncytia: HIV.
A further series has as its system HSV1 strain 17i. Nature of the series: plaque-reduction assay, HSV1 strain 17i in MRC5 cells. The class given is cell-based, HSV1 strain 17i; human embryonic fibroblast cells (MRC5). The conditions noted are these: Human alphaherpesvirus 1, 72 h, 3 days incubation, read-out: ED50 HSVI. As for the experimental part: as §1
For orientation: In a plaque reduction assay, fewer plaques than in the control indicate reduced infectivity or spread.

A further series has as its system Herpes infections. The note with it: in man; cited from earlier work.
In a further series the test system is HSV. The note with it: cited from earlier work.
Series [1] concerns viral protein glycosylation. The conditions noted are these: cited from earlier work.
A further series has as its system HSV1 and HSV2. The conditions noted are these: cited from earlier work.
For series [2] the following is noted: at high dosage; cited from earlier work.

For the compound `O=C(O[C@H]1CN2CC[C@H](O)[C@@H]2[C@@H](O)[C@@H]1O)c1ccccc1` [MDL 43,305, [1S-(1α,6β,7α,8β,8aβ)]-octahydro-1,6,7,8-indolizinetetrol 6-benzoate], the EC50 in the series on HSV2 strain HG52 was at most 20 µg/mL.

On to `CCC(O)[C@H](N)C(=O)O` (stereo partly drawn) [β-hydroxy-norvaline], for which, in the series on HIV glycoproteins, the formation of syncytia entry was “block the formation of syncytia” and the “expression of HIV glycoproteins” value is on record as “inhibit expression of HIV glycoproteins”.

Regarding `CCC=CCC(=O)O[C@H]1CN2CC[C@H](O)[C@@H]2[C@@H](O)[C@@H]1O` [MDL 29,513, [1S-(1α,6β,7α,8β,8aβ)]-octahydro-1,6,7,8-indolizinetetrol 6-(3-hexenoate)], the EC50 with HSV1 strain 17i and in the series with HSV2 strain HG52 was at most 5 µg/mL in each case.

Consider `O=CC[C@@H](O)[C@H](O)[C@H](O)CO` [2-deoxy-D-glucose], for which, in the series with HIV glycoproteins, the formation of syncytia result is “block the formation of syncytia” and the “expression of HIV glycoproteins” value was “inhibit expression of HIV glycoproteins”. Besides, the “efficacy in the treatment of Herpes infections” value in the series on Herpes infections is given as “has shown efficacy in the treatment of Herpes infections in man”. In addition, the “activity against HSV” value in the series with HSV is reported as “active against HSV”.

Turning to `CCCCCCCC(=O)O[C@H]1CN2CC[C@H](O)[C@@H]2[C@@H](O)[C@@H]1O` [MDL 29,797, [1S-(1α,6β,7α,8β,8aβ)]-octahydro-1,6,7,8-indolizinetetrol 6-octanoate], the EC50 with HSV1 strain 17i was at most 10 µg/mL; in the series with HSV2 strain HG52, at most 5 µg/mL.

For the compound `CCCC(=O)O[C@H]1CN2CC[C@H](O)[C@@H]2[C@@H](O)[C@@H]1O` [MDL 28,574, [1S-(1α,6β,7α,8β,8aβ)]-octahydro-1,6,7,8-indolizinetetrol 6-butanoate], the EC50 is at most 75 µg/mL in the series with HSV1 strain 17i and at most 22 µg/mL with HSV2 strain HG52.

Take `Cc1ccc(C(=O)O[C@H]2CN3CC[C@H](O)[C@@H]3[C@@H](O)[C@@H]2O)cc1` [MDL 29,204]: in the series with HSV2 strain HG52, the EC50 was at most 20 µg/mL.

For `O=CC[C@@H](O)[C@H](O)[C@H](O)CO` [2-deoxyglucose], the “inhibition of viral protein glycosylation” value in series [1] was “inhibit viral protein glycosylation by a different mechanism”.

Regarding `Nc1nc2c(ncn2COCCO)c(=O)[nH]1` [Acyclovir], the antiviral effect result in the series on HSV1 and HSV2 is reported as “potent antiviral effect”. In series [2], the solubility entry is given as “Poor solubility at high dosage”.

Turning to 2-deoxy-2-fluoroglucose, the “inhibition of viral protein glycosylation” value in series [1] is given as “inhibit viral protein glycosylation by a different mechanism”.
